From ChEMBL document CHEMBL5291721, “A preclinical secondary pharmacology resource illuminates target-adverse drug reaction associations of marketed drugs” (Nat Commun, 2023)

Columns and labels:
[1] = molecular target: T1, Alpha-1A adrenergic receptor (Homo sapiens, UniProt P35348); type: functional, cell-based
T1 sequence (P35348 whole entry): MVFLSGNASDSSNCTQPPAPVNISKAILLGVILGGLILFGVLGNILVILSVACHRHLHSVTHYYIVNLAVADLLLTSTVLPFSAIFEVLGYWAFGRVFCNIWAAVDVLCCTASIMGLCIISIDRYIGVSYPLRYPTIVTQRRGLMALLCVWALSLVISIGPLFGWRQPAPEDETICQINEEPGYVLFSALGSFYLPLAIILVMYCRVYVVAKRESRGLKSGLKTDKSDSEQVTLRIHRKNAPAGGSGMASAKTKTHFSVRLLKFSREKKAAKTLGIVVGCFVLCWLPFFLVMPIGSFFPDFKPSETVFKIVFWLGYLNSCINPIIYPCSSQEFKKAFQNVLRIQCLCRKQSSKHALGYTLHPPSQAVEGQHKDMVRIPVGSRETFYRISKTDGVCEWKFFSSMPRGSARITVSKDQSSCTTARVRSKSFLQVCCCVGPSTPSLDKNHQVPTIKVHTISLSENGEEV

[2] = molecular target: T1, Alpha-1A adrenergic receptor; type: functional, cell-based; remark: listed apart in the source
[3] = molecular target: T2, Androgen receptor (Homo sapiens, UniProt P10275)
T2 sequence (P10275 whole entry): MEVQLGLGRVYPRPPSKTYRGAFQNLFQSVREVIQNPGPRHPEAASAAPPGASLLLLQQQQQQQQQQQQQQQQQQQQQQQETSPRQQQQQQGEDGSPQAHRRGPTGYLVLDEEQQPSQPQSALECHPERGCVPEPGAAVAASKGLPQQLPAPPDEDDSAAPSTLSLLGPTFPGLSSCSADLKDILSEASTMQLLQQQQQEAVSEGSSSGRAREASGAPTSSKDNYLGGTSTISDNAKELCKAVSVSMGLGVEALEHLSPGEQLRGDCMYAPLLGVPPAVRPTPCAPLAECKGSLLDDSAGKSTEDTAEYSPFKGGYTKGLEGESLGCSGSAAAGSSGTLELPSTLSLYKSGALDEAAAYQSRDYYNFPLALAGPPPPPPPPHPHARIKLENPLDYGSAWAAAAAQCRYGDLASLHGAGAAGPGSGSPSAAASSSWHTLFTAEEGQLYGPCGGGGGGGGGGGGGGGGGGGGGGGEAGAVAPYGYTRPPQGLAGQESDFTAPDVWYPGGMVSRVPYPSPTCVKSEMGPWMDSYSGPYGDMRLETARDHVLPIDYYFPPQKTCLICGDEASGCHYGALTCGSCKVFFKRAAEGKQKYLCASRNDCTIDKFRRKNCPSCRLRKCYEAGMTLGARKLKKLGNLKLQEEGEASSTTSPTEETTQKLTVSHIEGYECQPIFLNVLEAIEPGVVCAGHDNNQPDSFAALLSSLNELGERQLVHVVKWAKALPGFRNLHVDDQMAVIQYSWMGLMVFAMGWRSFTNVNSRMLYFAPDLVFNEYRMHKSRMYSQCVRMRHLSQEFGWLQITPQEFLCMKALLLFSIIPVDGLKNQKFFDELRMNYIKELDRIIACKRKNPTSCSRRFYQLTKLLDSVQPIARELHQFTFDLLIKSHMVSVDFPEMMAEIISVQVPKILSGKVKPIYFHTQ

[4] = molecular target: T3, Muscarinic acetylcholine receptor M2 (Homo sapiens, UniProt P08172); type: functional, cell-based
T3 sequence (P08172 whole entry): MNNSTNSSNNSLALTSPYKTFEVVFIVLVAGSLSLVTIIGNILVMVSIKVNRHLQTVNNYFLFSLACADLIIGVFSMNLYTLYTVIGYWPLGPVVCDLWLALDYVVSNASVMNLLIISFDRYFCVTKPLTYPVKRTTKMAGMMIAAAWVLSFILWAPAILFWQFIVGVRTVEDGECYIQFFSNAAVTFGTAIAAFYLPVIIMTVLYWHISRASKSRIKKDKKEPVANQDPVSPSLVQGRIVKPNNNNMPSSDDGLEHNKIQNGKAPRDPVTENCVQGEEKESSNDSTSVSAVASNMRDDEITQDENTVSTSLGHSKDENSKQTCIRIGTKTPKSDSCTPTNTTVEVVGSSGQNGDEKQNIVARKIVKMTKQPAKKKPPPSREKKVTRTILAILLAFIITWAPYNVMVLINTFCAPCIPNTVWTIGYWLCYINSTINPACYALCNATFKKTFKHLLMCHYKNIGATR

[5] = molecular target: Cannabinoid receptor 1 (Homo sapiens, UniProt P21554); type: functional, cell-based
Sequence of Cannabinoid receptor 1 (P21554 whole entry): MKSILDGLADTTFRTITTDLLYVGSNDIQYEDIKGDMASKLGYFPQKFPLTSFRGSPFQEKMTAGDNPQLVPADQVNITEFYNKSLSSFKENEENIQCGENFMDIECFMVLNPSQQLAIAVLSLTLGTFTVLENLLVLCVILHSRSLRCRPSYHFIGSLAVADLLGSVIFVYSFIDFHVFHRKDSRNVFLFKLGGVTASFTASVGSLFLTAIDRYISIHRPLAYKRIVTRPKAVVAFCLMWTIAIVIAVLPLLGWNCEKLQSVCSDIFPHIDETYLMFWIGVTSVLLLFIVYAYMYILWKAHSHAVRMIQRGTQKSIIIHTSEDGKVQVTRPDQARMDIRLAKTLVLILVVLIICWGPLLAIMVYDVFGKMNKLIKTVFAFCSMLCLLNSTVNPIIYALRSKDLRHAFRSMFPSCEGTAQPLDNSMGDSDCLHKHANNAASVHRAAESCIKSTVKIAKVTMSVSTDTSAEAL

[6] = molecular target: Delta-type opioid receptor (Homo sapiens, UniProt P41143)
Sequence of Delta-type opioid receptor (P41143 whole entry): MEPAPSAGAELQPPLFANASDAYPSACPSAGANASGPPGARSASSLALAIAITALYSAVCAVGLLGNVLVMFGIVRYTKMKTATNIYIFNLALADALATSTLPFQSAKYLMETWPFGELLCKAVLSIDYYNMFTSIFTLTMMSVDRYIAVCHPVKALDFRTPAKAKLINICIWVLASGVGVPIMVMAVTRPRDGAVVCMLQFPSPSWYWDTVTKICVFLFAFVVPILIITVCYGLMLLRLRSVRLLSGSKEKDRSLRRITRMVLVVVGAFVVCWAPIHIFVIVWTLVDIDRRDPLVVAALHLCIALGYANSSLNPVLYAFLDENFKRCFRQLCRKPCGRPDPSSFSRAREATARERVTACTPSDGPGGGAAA

[7] = molecular target: Prostaglandin G/H synthase 1 (Homo sapiens, UniProt P23219); type: functional
Sequence of Prostaglandin G/H synthase 1 (P23219 whole entry): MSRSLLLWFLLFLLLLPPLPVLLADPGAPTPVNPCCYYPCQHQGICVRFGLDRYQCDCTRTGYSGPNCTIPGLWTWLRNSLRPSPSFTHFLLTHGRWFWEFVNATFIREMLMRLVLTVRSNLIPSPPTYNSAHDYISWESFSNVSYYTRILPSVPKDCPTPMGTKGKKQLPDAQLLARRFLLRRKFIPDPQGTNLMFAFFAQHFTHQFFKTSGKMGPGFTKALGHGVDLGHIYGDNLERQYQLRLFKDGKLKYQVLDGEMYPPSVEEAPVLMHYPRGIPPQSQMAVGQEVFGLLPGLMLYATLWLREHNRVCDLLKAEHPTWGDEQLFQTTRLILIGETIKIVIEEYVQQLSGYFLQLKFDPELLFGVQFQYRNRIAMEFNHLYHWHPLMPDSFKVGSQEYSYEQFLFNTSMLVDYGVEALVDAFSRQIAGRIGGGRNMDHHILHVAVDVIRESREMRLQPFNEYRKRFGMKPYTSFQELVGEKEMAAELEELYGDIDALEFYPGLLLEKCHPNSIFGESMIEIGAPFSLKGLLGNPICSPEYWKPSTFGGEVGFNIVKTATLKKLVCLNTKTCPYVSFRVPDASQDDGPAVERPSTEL

[8] = molecular target: Sodium-dependent noradrenaline transporter (Homo sapiens, UniProt P23975)
Sequence of Sodium-dependent noradrenaline transporter (P23975 whole entry): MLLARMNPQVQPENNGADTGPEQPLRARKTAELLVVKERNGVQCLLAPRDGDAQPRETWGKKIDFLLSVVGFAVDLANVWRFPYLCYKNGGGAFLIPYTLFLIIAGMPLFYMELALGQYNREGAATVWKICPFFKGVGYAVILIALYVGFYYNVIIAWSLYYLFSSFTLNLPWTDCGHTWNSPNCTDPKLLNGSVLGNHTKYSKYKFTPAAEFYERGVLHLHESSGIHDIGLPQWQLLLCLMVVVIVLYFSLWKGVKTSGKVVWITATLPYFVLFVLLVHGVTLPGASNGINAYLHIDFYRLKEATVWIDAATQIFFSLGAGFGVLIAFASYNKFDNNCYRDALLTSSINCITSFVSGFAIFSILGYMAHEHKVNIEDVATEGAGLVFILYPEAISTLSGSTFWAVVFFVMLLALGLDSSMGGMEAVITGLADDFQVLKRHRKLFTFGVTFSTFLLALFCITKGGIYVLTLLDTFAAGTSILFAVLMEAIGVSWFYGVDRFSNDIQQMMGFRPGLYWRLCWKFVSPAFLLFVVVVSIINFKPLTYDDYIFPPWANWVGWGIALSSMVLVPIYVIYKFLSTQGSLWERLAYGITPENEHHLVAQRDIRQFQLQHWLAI

[9] = molecular target: Mu-type opioid receptor (Homo sapiens, UniProt P35372); test: biochemical; type: functional
Sequence of Mu-type opioid receptor (P35372 whole entry): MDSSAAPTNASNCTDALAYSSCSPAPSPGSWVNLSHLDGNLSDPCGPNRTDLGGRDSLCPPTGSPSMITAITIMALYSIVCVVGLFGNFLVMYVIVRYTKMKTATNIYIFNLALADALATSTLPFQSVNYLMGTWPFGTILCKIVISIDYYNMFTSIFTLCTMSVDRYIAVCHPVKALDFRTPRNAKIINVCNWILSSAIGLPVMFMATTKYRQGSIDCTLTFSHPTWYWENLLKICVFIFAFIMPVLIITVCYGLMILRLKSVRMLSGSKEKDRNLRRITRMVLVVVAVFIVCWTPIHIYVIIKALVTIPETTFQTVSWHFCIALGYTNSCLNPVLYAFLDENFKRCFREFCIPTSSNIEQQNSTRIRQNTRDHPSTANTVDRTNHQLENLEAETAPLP
Note: assay procedure not described here.

Compound	AC50 [1] [µM]	AC50 [2] [µM]	AC50 [3] [µM]	AC50 [4] [µM]	AC50 [5] [µM]	AC50 [6] [µM]	AC50 [7] [µM]	AC50 [8] [µM]	AC50 [9] [µM]
C[C@@H]1C[C@H]2[C@@H]3C[C@H](F)C4=CC(=O)C=C[C@]4(C)[C@@]3(F)[C@@H](O)C[C@]2(C)[C@@]1(OC(=O)c1ccco1)C(=O)SCF [FLUTICASONE FUROATE]	> 30	> 30	0.13	> 10	> 30	> 30	9.89	> 30	
O=C(CCC/C=C\C[C@@H]1[C@@H](CC[C@@H](O)CCc2ccccc2)[C@H](O)C[C@@H]1O)OCCCCO[N+](=O)[O-] [LATANOPROSTENE BUNOD]		> 30	> 30				13.5	> 30	
Cc1oc(=O)oc1COC(=O)[C@@H]1N2C(=O)[C@@H](NC(=O)[C@H](N)c3ccccc3)[C@H]2SC1(C)C [LENAMPICILLIN]		> 30	> 30				> 30	> 30	
COc1ccc(OC)c(C(O)C(C)N)c1 (stereo not drawn) [METHOXAMINE]		0.021	> 30				> 30	> 30	
CC1(CCN2CCCCC2)C(=O)CCc2ccccc21 (stereo not drawn) [NEPINALONE]		> 30	> 30				> 30	> 30	
COC(=O)C[C@](O)(CCCC(C)(C)O)C(=O)O[C@@H]1C(OC)=C[C@]23CCCN2CCc2cc4c(cc2[C@H]13)OCO4 [OMACETAXINE MEPESUCCINATE]		> 30	> 30				> 30	> 30	
COc1cccc(C(=O)CCN[C@@H](C)[C@H](O)c2ccccc2)c1 [OXYFEDRINE]		> 30	> 30				> 30	2.65	
C[C@@H]1C[C@H]2[C@@H]3C[C@H](F)C4=CC(=O)C=C[C@]4(C)[C@H]3[C@@H](O)C[C@]2(C)[C@@]1(O)C(=O)CO [PARAMETHASONE]		> 30	3.48				> 30	> 30	
CCCn1cnc2c1c(=O)n(CCCCC(C)=O)c(=O)n2C [PROPENTOFYLLINE]		> 30	> 30				> 30	> 30	
Clc1ccc(C(Cn2ccnc2)OCc2csc3c(Cl)cccc23)c(Cl)c1 (stereo not drawn) [SERTACONAZOLE]		24.3	0.0201				5.34	3.3	
CC(OCCN1CCCCCC1)(c1ccccc1)c1ccc(Cl)cc1 (stereo not drawn) [SETASTINE]		28.1	> 30				> 30	5.82	
COc1cc(C)c2c(Oc3cccc(C(F)(F)F)c3)c(OC)cc(NC(C)CCCN)c2n1 (stereo not drawn) [TAFENOQUINE]		> 3	> 30				3.81	2.26	
O=S1(=O)CCN(CN2CCS(=O)(=O)NC2)CN1 [TAUROLIDINE]	> 30		> 30	> 30	> 30	> 30	> 30	> 30	> 30
CCCSc1nc(N[C@@H]2C[C@H]2c2ccc(F)c(F)c2)c2nnn([C@@H]3C[C@H](OCCO)[C@@H](O)[C@H]3O)c2n1 [TICAGRELOR]		> 30	> 30				26.2	14.8	
c1ccc2c(SC3=NCCN3)c[nH]c2c1 [TINAZOLINE]		0.003	> 30				> 30	5.56	
